What all share (test): relative viability (nuclei count vs DMSO), 5 days (fraction); higher = more cells survive
Compound in the assay “Crenolanib + Alpelisib”: CC1(COc2ccc3c(c2)ncn3-c2ccc3cccc(N4CCC(N)CC4)c3n2)COC1 [Crenolanib] + Cc1nc(NC(=O)N2CCC[C@H]2C(N)=O)sc1-c1ccnc(C(C)(C)C(F)(F)F)c1 [Alpelisib] (partner 2 µM)
The method in brief: (§1)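 The day after seeding in 1536-well plates, lung cancer cell lines were treated by pin tool with a single drug, or with a fixed anchor-drug dose together with five library-drug doses (not always all listed) in √10 steps. After 5 days, a combined fix-and-stain solution (final 0.05% Triton X-100, 1% formaldehyde, 1 ug/ml Hoechst) was added. Nuclei counted on 4× images gave relative viability as treated counts over vehicle counts, reported as the median of duplicate plates.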

Compound in the assay “Crenolanib + Trametinib”: CC1(COc2ccc3c(c2)ncn3-c2ccc3cccc(N4CCC(N)CC4)c3n2)COC1 [Crenolanib] + CC(=O)Nc1cccc(-n2c(=O)n(C3CC3)c(=O)c3c(Nc4ccc(I)cc4F)n(C)c(=O)c(C)c32)c1 [Trametinib] (partner 0.02 µM)
The method in brief: as §1

Compound in the assay “Tivantinib + Vorinostat”: O=C1NC(=O)[C@@H](c2cn3c4c(cccc24)CCC3)[C@@H]1c1c[nH]c2ccccc12 [Tivantinib] + O=C(CCCCCCC(=O)Nc1ccccc1)NO [Vorinostat] (partner 1 µM)
In short, it runs like this:
as §1

Compound in the assay “Crenolanib + Phenformin”: CC1(COc2ccc3c(c2)ncn3-c2ccc3cccc(N4CCC(N)CC4)c3n2)COC1 [Crenolanib] + N=C(N)NC(=N)NCCc1ccccc1 [Phenformin] (partner 250 µM)
The method in brief:
as §1

On to RERF-LC-KJ, for which the relative viability with Crenolanib + Alpelisib (first compound 0.01 µM) amounted to 0.839; in the assay with Crenolanib + Alpelisib (first compound 0.03162 µM), 0.761; with Crenolanib + Alpelisib (first compound 0.1 µM) it was 0.802; in the assay with Crenolanib + Alpelisib (first compound 0.3162 µM), 1.03; in the assay with Crenolanib + Alpelisib (first compound 1 µM), 0.73; in the assay with Crenolanib + Trametinib (first compound 0.01 µM), 0.882. Also, the relative viability with Crenolanib + Trametinib (first compound 0.03162 µM) was 0.855; with Crenolanib + Trametinib (first compound 0.1 µM), 0.896; with Crenolanib + Trametinib (first compound 0.3162 µM), 0.901; with Crenolanib + Trametinib (first compound 1 µM), 0.926; with Tivantinib + Vorinostat (first compound 0.01 µM) it was 0.717; in the assay with Tivantinib + Vorinostat (first compound 0.03162 µM), 0.628. For the same cell line, the relative viability with Tivantinib + Vorinostat (first compound 0.1 µM) was 0.717; with Tivantinib + Vorinostat (first compound 0.3162 µM), 0.502; with Crenolanib + Phenformin (first compound 0.01 µM), 0.442; with Crenolanib + Phenformin (first compound 0.03162 µM), 0.44; with Crenolanib + Phenformin (first compound 0.1 µM) it was 0.423; with Crenolanib + Phenformin (first compound 0.3162 µM), 0.463. The relative viability in the assay with Crenolanib + Phenformin (first compound 1 µM) came to 0.446.
As to SK-LU-1, the relative viability is 1.04 with Crenolanib + Alpelisib (first compound 0.01 µM); 0.931 with Crenolanib + Alpelisib (first compound 0.03162 µM); 0.703 with Crenolanib + Alpelisib (first compound 0.1 µM); 1.27 with Crenolanib + Alpelisib (first compound 0.3162 µM); 0.87 with Crenolanib + Alpelisib (first compound 1 µM); 0.465 in the assay with Crenolanib + Trametinib (first compound 0.01 µM). Besides, the relative viability was found to be 0.517 with Crenolanib + Trametinib (first compound 0.03162 µM); 0.351 with Crenolanib + Trametinib (first compound 0.1 µM); 0.491 in the assay with Crenolanib + Trametinib (first compound 0.3162 µM); 0.512 with Crenolanib + Trametinib (first compound 1 µM); 0.742 in the assay with Tivantinib + Vorinostat (first compound 0.01 µM); 0.764 with Tivantinib + Vorinostat (first compound 0.03162 µM). In addition, the relative viability with Tivantinib + Vorinostat (first compound 0.1 µM) was determined as 0.65; with Tivantinib + Vorinostat (first compound 0.3162 µM), 0.836; with Crenolanib + Phenformin (first compound 0.01 µM), 0.61; with Crenolanib + Phenformin (first compound 0.03162 µM), 0.545; in the assay with Crenolanib + Phenformin (first compound 0.1 µM), 0.39; with Crenolanib + Phenformin (first compound 0.3162 µM), 0.514. Moreover, in the assay with Crenolanib + Phenformin (first compound 1 µM), the relative viability was 0.517.
Regarding SK-MES-1, the relative viability worked out at 0.849 with Crenolanib + Alpelisib (first compound 0.01 µM); 0.972 in the assay with Crenolanib + Alpelisib (first compound 0.03162 µM); 0.866 with Crenolanib + Alpelisib (first compound 0.1 µM); 0.916 with Crenolanib + Alpelisib (first compound 0.3162 µM); 0.95 with Crenolanib + Alpelisib (first compound 1 µM); 0.583 in the assay with Crenolanib + Trametinib (first compound 0.01 µM). In addition, the relative viability came to 0.549 with Crenolanib + Trametinib (first compound 0.03162 µM); 0.55 with Crenolanib + Trametinib (first compound 0.1 µM); 0.548 in the assay with Crenolanib + Trametinib (first compound 0.3162 µM); 0.487 in the assay with Crenolanib + Trametinib (first compound 1 µM); 1.16 with Tivantinib + Vorinostat (first compound 0.01 µM); 0.945 with Tivantinib + Vorinostat (first compound 0.03162 µM). For the same cell line, the relative viability in the assay with Tivantinib + Vorinostat (first compound 0.1 µM) worked out at 1.06; in the assay with Tivantinib + Vorinostat (first compound 0.3162 µM) it was 0.935; in the assay with Crenolanib + Phenformin (first compound 0.01 µM), 0.655; in the assay with Crenolanib + Phenformin (first compound 0.03162 µM), 0.635; with Crenolanib + Phenformin (first compound 0.1 µM), 0.687; with Crenolanib + Phenformin (first compound 0.3162 µM), 0.636. Moreover, the relative viability with Crenolanib + Phenformin (first compound 1 µM) was 0.583.
Regarding SW 1573, the relative viability amounted to 0.824 in the assay with Crenolanib + Alpelisib (first compound 0.01 µM); 0.765 with Crenolanib + Alpelisib (first compound 0.03162 µM); 0.706 with Crenolanib + Alpelisib (first compound 0.1 µM); 0.954 in the assay with Crenolanib + Alpelisib (first compound 0.3162 µM); 0.608 with Crenolanib + Alpelisib (first compound 1 µM); 0.661 in the assay with Crenolanib + Trametinib (first compound 0.01 µM). The relative viability with Crenolanib + Trametinib (first compound 0.03162 µM) was found to be 0.607; in the assay with Crenolanib + Trametinib (first compound 0.1 µM), 0.55; in the assay with Crenolanib + Trametinib (first compound 0.3162 µM), 0.726; in the assay with Crenolanib + Trametinib (first compound 1 µM), 0.579; with Tivantinib + Vorinostat (first compound 0.01 µM), 1.04; in the assay with Tivantinib + Vorinostat (first compound 0.03162 µM), 0.53. The relative viability stood at 0.75 with Tivantinib + Vorinostat (first compound 0.1 µM); 0.67 in the assay with Tivantinib + Vorinostat (first compound 0.3162 µM); 0.426 with Crenolanib + Phenformin (first compound 0.01 µM); 0.44 with Crenolanib + Phenformin (first compound 0.03162 µM); 0.331 with Crenolanib + Phenformin (first compound 0.1 µM); 0.446 with Crenolanib + Phenformin (first compound 0.3162 µM). In addition, the relative viability with Crenolanib + Phenformin (first compound 1 µM) came to 0.348.

The record behind these values is the supplement of paper PMC10307832.
